Assays:
CYP3A4 [1] = target: T1, CYP3A4 (Homo sapiens, UniProt P08684, S18F); test: CYP3A4-mediated CBN metabolism; assay type: in vitro ADME; design: polyhistidine (C); made in house; host or cells: E. coli DH5alpha; conditions: targeted and untargeted metabolomics
IL-6 = IL-6 ELISA in LPS-stimulated BV2 microglial cells; assay type: cell-based; conditions: LPS-stimulated BV2, 5 μM
Description: (§1) The BV2 microglial cells were subjected to the treatment of LPS both in the absence and presence of CBN and its selected metabolites. The seeding density for this assay was 1 × 10^5 cells/well. The cells were initially treated with the molecules for 4 h before being stimulated with LPS (25 ng/mL). The NO assay was performed 24 h after the treatment with LPS. The NO assay was performed according to the manufacturer’s protocol, and NO levels were quantified using nitrate standard curves. For the assay, 50 μL of cell media was used in a 96-well plate, and the absorbance was recorded at 540 nm. All measurements were performed in n = 5.
(§2) ELISA assays of IL-6, IL-10 (Item No. 88–7105), and Arginase 1 were performed using the same supernatant with which we had completed the NO and LDH assays. The culture media was collected, and the IL-6 (Thermo Scientific) and Arginase 1 (abcam) assays were performed using the specific monoclonal antibodies as per the manufacturer’s instructions.

CYP3A4 [2] = target: T1, CYP3A4; test: NADPH oxidation assay with CYP3A4 nanodisc and CPR; conditions: triplicate
CB2 receptors = target: CB2 receptors; design: method as in ref 10 (Rhee et al., citation mark lost in text); conditions: COS-7 cell lines; ref 10 (Rhee et al.); cited from earlier work
DRG neurons = test: Calcium responses of cultured DRG sensory neurons; assay type: cell-based; conditions: cultured mouse DRG neurons, 50 μM × 15 s
Description: 9 CBN and 11-OH CBN activate DRG neurons with similar response magnitudes but differ in their percentage of neurons activated and time to peak response. Calcium response traces of representative cultured mouse DRG neurons following application of CBN (A) and 11-OH CBN (B) 50 μM × 15 s (arrow). […] Mean value ± SEM (CBN: n = 59; 11-OH CBN: n = 29, two-tailed t test, Prism GraphPad).

CB2 receptor = CB2 receptor (Homo sapiens, UniProt P34972); test: G protein nanoBRET assay, antagonist mode, CB2 receptor; conditions: 50 μM after pretreatment with 1 μM CP-55940
CB2 receptor, sequence (P34972 whole entry): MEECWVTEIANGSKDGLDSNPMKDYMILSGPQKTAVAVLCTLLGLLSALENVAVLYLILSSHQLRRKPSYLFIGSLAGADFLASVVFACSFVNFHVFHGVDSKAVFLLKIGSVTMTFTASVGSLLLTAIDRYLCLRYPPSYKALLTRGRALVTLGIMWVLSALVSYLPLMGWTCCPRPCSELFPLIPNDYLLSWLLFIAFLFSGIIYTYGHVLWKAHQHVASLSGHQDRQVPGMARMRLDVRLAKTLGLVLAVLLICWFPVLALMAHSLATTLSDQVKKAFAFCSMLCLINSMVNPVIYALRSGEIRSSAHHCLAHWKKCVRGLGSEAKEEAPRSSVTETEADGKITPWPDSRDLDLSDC

TRPV4 = test system: TRPV4; design: method as in ref 11 (De Petrocellis et al., citation mark lost in text); conditions: ref 11 (De Petrocellis et al.); cited from earlier work
CB1 receptor = CB1 receptor (Homo sapiens, UniProt P21554); test: G protein nanoBRET assay, antagonist mode, CB1 receptor; conditions: 50 μM after pretreatment with 1 μM CP-55940
CB1 receptor, sequence (P21554 whole entry): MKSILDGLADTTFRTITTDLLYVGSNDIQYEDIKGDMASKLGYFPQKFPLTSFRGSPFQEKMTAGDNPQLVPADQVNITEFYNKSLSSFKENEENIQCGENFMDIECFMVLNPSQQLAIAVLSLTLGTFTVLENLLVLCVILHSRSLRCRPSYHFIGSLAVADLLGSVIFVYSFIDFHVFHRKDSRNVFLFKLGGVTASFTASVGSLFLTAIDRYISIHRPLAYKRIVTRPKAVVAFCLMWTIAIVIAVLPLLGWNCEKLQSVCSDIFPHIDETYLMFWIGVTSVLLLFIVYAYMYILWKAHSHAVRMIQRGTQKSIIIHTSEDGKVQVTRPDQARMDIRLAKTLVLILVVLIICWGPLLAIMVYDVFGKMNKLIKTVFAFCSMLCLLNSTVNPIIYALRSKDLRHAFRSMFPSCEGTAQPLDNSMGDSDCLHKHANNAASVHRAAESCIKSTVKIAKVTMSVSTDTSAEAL

[3] = In vivo metabolism of CBN in female mice, plasma levels by targeted LC/MS/MS; design: species or system C57BL/6 mice
Description: Initially dissolved in ethanol, CBN was combined with a volume of Tween 80, constituting 6% of the total solution volume for injection. Ethanol was eliminated via vacuum evaporation, and saline was added to prepare a 4 mg/mL solution. CBN (20 mg/kg) or vehicle was administered to C57BL/6 mice intravenously (IV) through the retro-orbital sinus or intraperitoneally (IP) at the lower right quadrant of the abdomen. Animals were euthanized at 30- or 120 min postinjection. Blood samples, collected via cardiac puncture into heparin tubes, underwent cold centrifugation at 4500 rpm for 15 min to isolate plasma. Plasma and whole liver samples were flash-frozen at −80 °C for subsequent analysis. Our decision to use female mice for this experiment was based on the availability of age-matched mice in the colony at the time of the experiment.
Mice were anaesthetized with a 3% inhalant dose of isoflurane until their respiratory rate decreased to 50% of baseline (i.e., 40–60 breaths/min) and the righting reflex was abolished. Mice were subsequently removed from the induction chamber and laid on their side. Using the index finger and thumb of the nondominant hand, the skin above and below the eye was retracted until a slight protrusion from the socket was noted. A 29G1/2 needle was inserted, bevel down, into the medial canthus at an approximate 45-degree angle until slight resistance was noted. Volume was slowly infused at a rate of 15uL/second. The needle was subsequently removed from the eye socket, and ophthalmic ointment was added.
Animals were gently restrained by scruff, and the injection site at the lower right quadrant of the abdomen was identified. The needle was inserted at a 60-degree angle to the body, and the plunger was lightly withdrawn to ensure the needle was not in contact with viscera or organs before dispensing volume.
200 μL plasma samples were collected and used for extraction using 1 mL of Hexane: Ethyl acetate (8:2 v/v) following a similar protocol described above.
Samples were analyzed using the Sciex QTrap 6500+ system (Framingham, MA) with Waters Acquity I- class plus UPLC. Software Analyst 1.7.1 was used for data acquisition.
The LC separation was performed on a Waters Acquity UPLC BEH column (2.1 × 100 mm, 1.7 μm) with mobile phase A (0.1% formic acid in water) and mobile phase B (0.1% formic acid in acetonitrile). The flow rate was 0.5 mL/min unless noted otherwise. The linear gradient was as follows: 0–0.5 min, 70%A; 2 min, 20%A; 4–4.2 min, 0%A; 4.21–5.2 min, 0%A (0.8 mL/min); 5.3–6.9 min, 70%A. The autosampler was set at 10 °C, and the column was kept at 50 °C. The injection volume was 5 μL.
Mass spectra were acquired under positive electrospray ionization (ESI) with the ion spray voltage of 4500 V. The source temperature was 500 °C. The curtain gas, ion source gas 1, and ion source gas 2 were 32, 50, and 70 psi, respectively. Multiple reaction monitoring (MRM) was used for quantitation with the MRM transition of CBN (m/z 311.2 → m/z 269.1), CBN-1′–OH (m/z 327.2 → m/z 253.1), CBN-11-OH (m/z 327.2 → m/z 128.1), CBN-p-quinone (m/z 325.2 → m/z 283.1) and EPEA-d4 as internal standard (m/z 350.3 → m/z 66.1).

TRP channel = test system: TRP channel; design: method as in ref 11 (De Petrocellis et al., citation mark lost in text); conditions: stimulation by 1 mM carvacrol; ref 11 (De Petrocellis et al.); read-out: IC50, prevention of intracellular calcium increase upon carvacrol; cited from earlier work
IL-10 = IL-10 ELISA in LPS-stimulated BV2 microglial cells; assay type: cell-based; conditions: LPS-stimulated BV2, 1–5 μM
Description: as §1, §2

CB1 receptors = target: CB1 receptors; design: method as in ref 10 (Rhee et al., citation mark lost in text); conditions: COS-7 cell lines; ref 10 (Rhee et al.); cited from earlier work
Arginase 1 = Arginase 1 ELISA in LPS-stimulated BV2 microglial cells; assay type: cell-based
Description: as §1, §2

NO = NO levels in LPS-stimulated BV2 microglial cells; assay type: cell-based
Description: as §1

T1 sequence (P08684 with tags, fused parts or gaps S18F limits assumed): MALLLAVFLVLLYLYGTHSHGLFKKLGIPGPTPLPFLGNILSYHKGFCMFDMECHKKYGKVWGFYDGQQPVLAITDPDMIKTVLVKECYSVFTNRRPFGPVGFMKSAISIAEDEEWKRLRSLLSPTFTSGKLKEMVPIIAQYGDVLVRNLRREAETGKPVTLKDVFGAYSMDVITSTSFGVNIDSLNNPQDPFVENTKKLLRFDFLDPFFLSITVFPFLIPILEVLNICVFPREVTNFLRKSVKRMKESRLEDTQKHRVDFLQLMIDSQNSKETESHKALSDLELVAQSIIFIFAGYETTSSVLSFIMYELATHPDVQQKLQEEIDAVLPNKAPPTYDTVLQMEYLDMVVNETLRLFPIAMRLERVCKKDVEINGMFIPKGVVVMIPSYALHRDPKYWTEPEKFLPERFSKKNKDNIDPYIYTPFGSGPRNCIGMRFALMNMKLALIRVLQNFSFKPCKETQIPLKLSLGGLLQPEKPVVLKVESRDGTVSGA

Compound: CCCCCc1cc(O)c2c(c1)OC(C)(C)c1ccc(C)cc1-2 [CBN, Cannabinol]
- metabolism of CBN by CYP3A4 (CYP3A4 [1]): did not metabolize
- IL-6 levels (IL-6): reduction in IL-6 levels
- rate of NADPH oxidation in the presence of the compound (CYP3A4 [2]): 249.731±14625 nmol/min/nmol
- Ki (CB2 receptors): 126 ± 26 nM
- Ca2+ response (%) (DRG neurons): 38.9 ± 4.3%
- DRG neuron activation (%) (DRG neurons): 29.3 ± 4.9%
- Response Time (DRG neurons): 40.7 ± 4.8 s
- percentage of DRG neurons activated (DRG neurons): 29.3 ± 4.9%
- time to peak response (DRG neurons): 40.7 ± 4.8 s
- inhibition of CB2 receptor (CB2 receptor): partial inhibition
- efficacy in activating TRPV4 compared to ionomycin (TRPV4): 15.3–26.1%
- inhibition of CB1 activation (CB1 receptor): significant but partial inhibition
- reduction of plasma level between 0.5 and 2 h ([3]; IP administration of CBN): 3 fold
- reduction of plasma level between 0.5 and 2 h ([3]; IV administration of CBN): ~3 fold
- amount of CBN available in plasma, intravenous relative to intraperitoneal ([3]; female mice, CBN 20 mg/kg, plasma): 3.0 times
- IC50 (TRP channel): 9400 ± 100 nM
- IL-10 levels (IL-10): concentration-dependent increase in IL-10 levels
- Ki (CB1 receptors): 211 ± 35 nM
- Arginase1 levels (Arginase 1): slight increase in Arginase1 levels
- production of NO (NO; LPS-stimulated BV2, 5 μM): slightly lower production of NO
- change in NO levels compared to cells with only LPS treatment (NO; LPS-stimulated BV2, 1, 2.5 and 5 μM): no detectable significant (ns) change

— article PMC12257535, “Distinct Interactions of Cannabinol and Its Cytochrome P450-Generated Metabolites with Receptors and Sensory Neurons” (Journal of Medicinal Chemistry, 2025)
